Assay results: patent US10874104B2, “Pesticidally active pryazole derivatives” (SYNGENTA PARTICIPATIONS AG, priority 2016, dated 2020)
Like-named read-outs stand apart in the source and are kept apart here.

Legend:
Format in all cases: in vivo
[1] = system: Diabrotica balteata (Corn Root Worm); assay: Diabrotica balteata (corn root worm), sprayed maize sprouts on agar, mortality; conditions: 96 h
Method: Diabrotica balteata (Corn Root Worm):
Maize sprouts placed onto an agar layer in 24-well microtiter plates were treated with aqueous test solutions prepared from 10′000 ppm DMSO stock solutions by spraying. After drying, the plates were infested with L2 larvae (6 to 10 per well). The samples were assessed for mortality 4 days after infestation.

[2] = system: Euschistus heros (Neotropical Brown Stink Bug); assay: Euschistus heros (neotropical brown stink bug), feeding/contact activity, mortality; conditions: 120 h
Method: Euschistus heros (Neotropical Brown Stink Bug): Feeding/contact activity
Soybean leaves on agar in 24-well microtiter plates were sprayed with aqueous test solutions prepared from 10′000 ppm DMSO stock solutions. After drying the leaves were infested with N2 nymphs. The samples were assessed for mortality 5 days after infestation.

[3] = system: Myzus persicae (Green Peach Aphid); assay: Myzus persicae (green peach aphid), feeding/contact activity, mortality; conditions: 144 h, application rate 200 ppm, aphid population of mixed ages, 6 days after infestation
Method: Myzus persicae (Green Peach Aphid): Feeding/Contact Activity
(§1) Sunflower leaf discs were placed onto agar in a 24-well microtiter plate and sprayed with aqueous test solutions prepared from 10′000 ppm DMSO stock solutions. After drying, the leaf discs were infested with an aphid population of mixed ages. The samples were assessed for mortality 6 days after infestation.

[4] = system: Plutella xylostella (Diamond Back Moth); assay: Plutella xylostella (diamond back moth), feeding/contact activity on artificial diet, mortality; conditions: 120 h
Method: Plutella xylostella (Diamond Back Moth): Feeding/Contact Activity
24-well microtiter plates with artificial diet were treated with aqueous test solutions prepared from 10′000 ppm DMSO stock solutions by pipetting. After drying, the plates were infested with L2 larvae (10 to 15 per well). The samples were assessed for mortality 5 days after infestation.

[5] = system: Spodoptera littoralis (Egyptian Cotton Leaf Worm); assay: Spodoptera littoralis (Egyptian cotton leaf worm), feeding/contact activity, mortality; conditions: 72 h
Method: Spodoptera littoralis (Egyptian Cotton Leaf Worm): Feeding/Contact Activity
Cotton leaf discs were placed onto agar in 24-well microtiter plates and sprayed with aqueous test solutions prepared from 10′000 ppm DMSO stock solutions. After drying the leaf discs were infested with five L1 larvae. The samples were assessed for mortality 3 days after infestation.

[6] = system: Tetranychus urticae (Two-Spotted Spider Mite); assay: Tetranychus urticae (two-spotted spider mite), feeding/contact activity, mortality; conditions: 192 h, application rate 200 ppm, mixed population (mobile stages), 8 days after infestation
Method: Tetranychus urticae (Two-Spotted Spider Mite): Feeding/Contact Activity
Bean leaf discs on agar in 24-well microtiter plates were sprayed with aqueous test solutions prepared from 10′000 ppm DMSO stock solutions. After drying the leaf discs were infested with a mite population of mixed ages. The samples were assessed for mortality on mixed population (mobile stages) 8 days after infestation.

[7] = system: Thrips tabaci (Onion Thrips); assay: Thrips tabaci (onion thrips), feeding/contact activity, mortality; conditions: 144 h
Method: Thrips tabaci (Onion Thrips): Feeding/Contact Activity
as §1, with “on” for “onto”, “in” for “in a”, “plates” for “plate”, “drying” for “drying,”, “a thrips” for “an aphid”

[8] = application rate 200 ppm, L2 larvae, 4 days after infestation, read-out: mortality
[9] = application rate 200 ppm, N2 nymphs, 5 days after infestation, read-out: mortality
[10] = application rate 200 ppm, L2 larvae on artificial diet, 5 days after infestation, read-out: mortality
[11] = application rate 200 ppm, L1 larvae, 3 days after infestation, read-out: mortality
[12] = application rate 200 ppm, thrips population of mixed ages, 6 days after infestation, read-out: mortality

Measured: mortality at 200 ppm

CN(C(=O)c1cc(-c2cnn(-c3c(OC(F)F)c(C(F)(F)C(F)(F)F)nn3C)c2)ccc1C#N)C1(C#N)CC1 [Compound 61]
≥ 80%: [1]; [8]

Cn1nc(C(F)(F)C(F)(F)F)c([S+]([O-])C2CC2)c1-n1cc(-c2ccc(Cl)c(C(=O)NC3CC3)c2)cn1 (centres unmarked) [Compound 34]
≥ 80%: [1]; [8] | [2]; [9] | [3] | [4]; [10] | [5]; [11] | [6] | [7]; [12]

C=Cc1c(C(F)(F)C(F)(F)F)nn(C)c1-n1cc(-c2ccc(Cl)c(C(=O)NC3CC3)c2)cn1 [Compound 16, 2-Chloro-N-cyclopropyl-5-[1-[2-methyl-5-(1,1,2,2,2-pentafluoroethyl)-4-vinyl-pyrazol-3-yl]pyrazol-4-yl]benzamide]
≥ 80%: [1]; [8] | [2]; [9] | [3] | [4]; [10] | [5]; [11] | [6] | [7]; [12]

Cn1nc(C(F)(F)C(F)(F)F)c(OC(F)(F)C(F)C(F)(F)F)c1-n1cc(-c2ccc(Cl)c(C(=O)NCc3ccccc3)c2)cn1 (centres unmarked) [Compound 57]
≥ 80%: [3]

Cn1nc(C(F)(F)C(F)(F)F)c(S(=O)(=O)C2CC2)c1-n1cc(-c2ccc(Cl)c(C(=O)NC3(C#N)CC3)c2)cn1 [Compound 35]
≥ 80%: [1]; [8] | [2]; [9] | [4]; [10] | [5]; [11] | [6] | [7]; [12]

CCN(C(=O)c1cc(-c2cnn(-c3c(OC(F)F)c(C(F)(F)C(F)(F)F)nn3C)c2)ccc1C#N)C1CC1 [Compound 58]
≥ 80%: [1]; [8]

C#Cc1c(C(F)(F)C(F)(F)F)nn(C)c1-n1cc(-c2ccc(Cl)c(C(=O)NC3CC3)c2)cn1 [Compound 18]
≥ 80%: [5]; [11]

Cn1nc(C(F)(F)C(F)(F)F)c(OC(F)F)c1-n1cc(-c2ccc(Cl)c(C(=O)NC3CC3)c2)cn1 [Compound 2, 2-Chloro-N-cyclopropyl-5-[1-[4-(difluoromethoxy)-2-methyl-5-(1,1,2,2,2-pentafluoroethyl)-pyrazol-3-yl]pyrazol-4-yl]benzamide]
≥ 80%: [1]; [8] | [2]; [9] | [3] | [4]; [10] | [5]; [11] | [6]

Cn1nc(C(F)(F)C(F)(F)F)c(S(=O)(=O)C2CC2)c1-n1cc(-c2ccc(Cl)c(C(=O)NC3CC3)c2)cn1 [Compound 33]
≥ 80%: [1]; [8] | [2]; [9] | [4]; [10] | [5]; [11] | [6] | [7]; [12]

C=Cc1c(C(F)(F)C(F)(F)F)nn(C)c1-n1cc(-c2ccc(Cl)c(C(=O)NC3(C#N)CC3)c2)cn1 [Compound 15, 2-Chloro-N-(1-cyanocyclopropyl)-5-[1-[2-methyl-5-(1,1,2,2,2-pentafluoroethyl)-4-vinyl-pyrazol-3-yl]pyrazol-4-yl]benzamide]
≥ 80%: [1]; [8] | [2]; [9] | [3] | [4]; [10] | [5]; [11] | [6]

Cn1nc(C(F)(F)C(F)(F)F)c(OC(F)F)c1-n1cc(-c2cc(C(=O)NC3CC3)c(Cl)cc2F)cn1 [Compound 47]
≥ 80%: [4]; [10]

CCOc1c(C(F)(F)C(F)(F)F)nn(C)c1-n1cc(-c2ccc(Cl)c(C(=O)NC3(C#N)CC3)c2)cn1 [Compound 38]
≥ 80%: [1]; [8] | [2]; [9] | [4]; [10] | [5]; [11] | [6]

Cn1nc(C(F)(F)C(F)(F)F)c(OC(F)F)c1-n1cc(-c2ccc(Cl)c(C(=O)NC3CC3)c2)nn1 [Compound 65]
≥ 80%: [1]; [8]

Cn1nc(C(F)(F)C(F)(F)F)c(OC(F)(F)C(F)(F)C(F)(F)F)c1-n1cc(-c2ccc(Cl)c(C(=O)NC3CC3)c2)cn1 [Compound 45]
≥ 80%: [1] | [4] | [5] | [7]

Cn1nc(C(F)(F)C(F)(F)F)c(OC(F)(F)C(F)F)c1-n1cc(-c2ccc(Cl)c(C(=O)NC3(C#N)CC3)c2)cn1 [Compound 37]
≥ 80%: [1]; [8] | [2]; [9] | [4]; [10] | [5]; [11] | [6] | [7]; [12]

Cn1nc(C(F)(F)C(F)(F)F)c(OC(F)F)c1-n1cc(-c2cnc(Cl)c(C(=O)NC3(C#N)CC3)c2)cn1 [Compound 21]
≥ 80%: [1]; [8] | [2]; [9] | [3] | [4]; [10] | [5]; [11] | [6]

Cn1nc(C(F)(F)C(F)(F)F)c(OC(F)(F)C(F)(F)C(F)(F)F)c1-n1cc(-c2ccc(Cl)c(C(=O)NC3(C#N)CC3)c2)cn1 [Compound 40]
≥ 80%: [1] | [2] | [4] | [5] | [7]

COc1c(C(F)(F)C(F)(F)F)nn(C)c1-n1cc(-c2ccc(Cl)c(C(=O)NC3CC3)c2)cn1 [Compound 6]
≥ 80%: [1]; [8] | [2]; [9] | [4]; [10] | [5]; [11] | [6] | [7]; [12]

C#Cc1c(C(F)(F)C(F)(F)F)nn(C)c1-n1cc(-c2ccc(Cl)c(C(=O)NC3(C#N)CC3)c2)cn1 [Compound 17]
≥ 80%: [1]; [8] | [2]; [9] | [3] | [4]; [10] | [6]

Cn1nc(C(F)(F)C(F)(F)F)c(OC(F)(F)C(F)C(F)(F)F)c1-n1cc(-c2ccc(Cl)c(C(=O)NC3(C#N)CC3)c2)cn1 (centres unmarked) [Compound 43]
≥ 80%: [1]; [8] | [4]; [10] | [5]; [11] | [7]; [12]

Cn1nc(C(F)(F)C(F)(F)F)c(OC(F)(F)C(F)C(F)(F)F)c1-n1cc(-c2ccc(Cl)c(C(=O)NC3CC3)c2)cn1 (centres unmarked) [Compound 46]
≥ 80%: [1]; [8] | [4]; [10] | [5]; [11] | [7]; [12]

Cn1nc(C(F)(F)C(F)(F)F)c(OCC(F)F)c1-n1cc(-c2ccc(Cl)c(C(=O)NC3CC3)c2)cn1 [Compound 44]
≥ 80%: [1]; [8] | [4]; [10] | [5]; [11] | [6]

Cn1nc(C(F)(F)C(F)(F)F)c(OC(F)F)c1-n1cc(-c2ccc(C#N)c(C(=O)NC3CC3)c2)cn1 [Compound 62]
≥ 80%: [1]; [8]

Cn1nc(C(F)(F)C(F)(F)F)c(OC(F)F)c1-n1cc(-c2ccc(Cl)c(C(=O)NC3(C#N)CC3)c2)cn1 [Compound 1, 2-chloro-N-(1-cyanocyclopropyl)-5-[1-[4-(difluoromethoxy)-2-methyl-5-(1,1,2,2,2-pentafluoroethyl)pyrazol-3-yl]pyrazol-4-yl]benzamide]
≥ 80%: [1]; [8] | [2]; [9] | [3] | [4]; [10] | [5]; [11] | [6]

Cn1nc(C(F)(F)C(F)(F)F)c(OC(F)F)c1-n1cc(-c2ccc(Cl)c(C(=O)NC3(C#N)CC3)c2)nn1 [Compound 64, 2-Chloro-N-(1-cyanocyclopropyl)-5-[1-[4-(difluoromethoxy)-2-methyl-5-(1,1,2,2,2-pentafluoroethyl)pyrazol-3-yl]triazol-4-yl]benzamide]
≥ 80%: [1]; [8]

Cn1nc(C(F)(F)C(F)(F)F)c(OCC(F)F)c1-n1cc(-c2ccc(Cl)c(C(=O)NC3(C#N)CC3)c2)cn1 [Compound 39]
≥ 80%: [1]; [8] | [2]; [9] | [4]; [10] | [5]; [11] | [6]

CN(C(=O)c1cc(-c2cnn(-c3c(OC(F)F)c(C(F)(F)C(F)(F)F)nn3C)c2)ccc1C#N)C1CC1 [Compound 59]
≥ 80%: [1]; [8]
